Patent publication US20090035844A1, “Mechanical cell wounder device and related method” (HONG KONG BAPTIST UNIVERSITY, priority 2007, published 2009)

Tested on: IEC-6 cells
Test: Wounding assay: migration of IEC-6 cells after mechanical wounding (96-well plate)
Format: cell-based, rat
Procedure: After incubation in 10% FBS supplemented DMEM for 24 hours, the cells are starved in serum-free medium for another 24 hours. […] A cell denuded area is created by scratching the cell monolayer with the eight-channel mechanical wounder fitted with p-10 pipette tips (Axygen, T-300). To ensure even contact between the tips and the bottom of the well, the pins are calibrated by adjusting the hex screw with a hex wrench. With the help of the guiding-bar, the wounder is fixed onto the 96-well plate where each channel (pipette tip) is positioned at the same level in the eight wells of the same column. During wounding, the cell monolayer is scratched by moving the wounder from the left inner edge to the right inner edge of the wells where a sharp wound is formed along the diameter of each well. The wounding procedure is then repeated for all columns of a 96-well plate.
Photomicrographs of wounds are taken at time zero (501, 503, 505), 16 hours (511, 513, 515) and 24 hours (521, 523, 525) after wounding. Images at time zero are taken to record the initial width of the wounds and the recovery of the wounded monolayers due to cell migration towards the denuded area can be evaluated at 16 and 24 hours. The images are captured using an inverted phase-contract microscope such as a TMS Nikon with 4× objective, and the width of wound can quantified by the software such as Motic image plus 2.0 software of Motic Instruments. The migration of cells towards the wounds is expressed as a percentage of wound closure where % of wound closure=[(Wt=0−Wt=16 or 24)/Wt=0]×100% where Wt=0 is the width of wound measured immediately after scratching and Wt=16 or 24 is the width of wound measured 16 hours or 24 hours after scratching.

Row | Molecule | percentage of wound closure (16 hours after wounding, 5 mM DFMO in serum-free medium (control about 60%)) [%] | percentage of wound closure (24 hours after wounding, 5 mM DFMO in serum-free medium (control 76%)) | percentage of wound closure (24 hours after wounding, 20 ng/ml EGF in serum-free medium (control 76%)) [%]
1 | NCCC[C@](N)(C(=O)O)C(F)F [DFMO, alpha-difluoromethylornithine] | 33 | around 50% | –
2 | epithelial growth factor (NSDSECPLSHDGYCLHDGVCMYIEALDKYACNCVVGYIGERCQYRDLKWWELR; Epidermal growth factor; UniProt P01133 971-1023, looked up) [EGF, cell migration enhancer, used as the inducer of cell migration] | – | – | ~100
